US20250339409A1, “USES OF PAN BET INHIBITORS” (VYNE THERAPEUTICS INC., priority 2021, published 2025)
Where “and” joins values, the source holds several entries; their conditions need not be identical. Equal values may be shown once.

Test system: incisional skin wounds
Assay: Incisional skin wound healing model (external and internal scoring, time to complete healing, body weight)
Assay type: in vivo, female Hairless Skh-1 mice
Parameters: key to Mean internal scores, Score presence tissue mass: 0 = no tissue mass, 1 = small, 2 = moderate, 3 = large; key to Global external score per day (mean): sum of the scores of 4 external wound parameters; MBWC D 16 − D 0, individual mouse: unit not given here
Settings: for Global external score per day (mean) / Mean score swelling per day / Mean score visibility (external) per day: BETi1 at 1%; for Mean score length (mm) per day / Mean score width (mm) per day: skin wound; for Body weight, individual mouse: in g (unit assumed)
Description: Incisional wounds (10 mm) are made over the entire thickness of the skin (about 1 mm) on both flanks of nine female Hairless Skh-1 mice divided into 3 groups (n=3) according to body weight on D0. Formulations or hydroalcoholic gel are administered topically once daily starting immediately after the induction of skin wounds on DO until the complete healing of both wounds of each mouse, at the same time in the morning. The effects of treatment on wound healing with the formulation used containing one dose of the novel BETi, the vehicle of this new compound (negative control) and a hydroalcoholic gel preventing wound healing (positive control), is evaluated by the daily scoring of the healing process externally. The scoring is based on the daily measurement of the length and width, swelling of each induced skin wound from DO until complete healing, the determination of the time required for complete healing of each of induced skin wounds, and after complete healing of both wounds of a same mouse, by the scoring of the healing process internally by evaluation of the visibility of the scar, the presence of a tissue mass (collagen+elastin) under the scar and the level of vascularization of the scar.
Mice are weighed 3 times per week from the day of induction of skin wounds (D0) until the complete healing of both wounds of each mouse and before sacrifice. The viability and the well being of mice of each cage is checked and recorded daily.
The scoring takes into account the following 4 parameters: The length of the skin wounds measured with a ruler.
The width of the skin wounds with the following scoring grid: • 0=skin wound completely closed, • 1=skin wound almost completely closed, • 2=skin wound moderately closed, • 3=skin wound wide open.
The swelling of the skin wounds with the following scoring grid: • 0=skin wound no or no longer swollen, • 1=skin wound slightly swollen, • 2=skin wound moderately swollen, • 3=skin wound highly swollen.
The visibility of the skin wounds with the following scoring grid: • 0=skin wound no or no longer visible, • 1=skin wound slightly visible, • 2=skin wound moderately visible, • 3=skin wound highly visible.
The sum of the scores of these 4 parameters gives the Global External Score of Wound Healing (GESWH). The time required for complete healing of each induced skin wound is also determined.
After the complete healing of both skin wounds of each mouse, mice are sacrificed, and the scoring of the healing process internally is performed for each wound and takes into account the following 3 parameters: • visibility of the scar with the following scoring grid: • 0=scar highly visible • 1=scar moderately visible, • 2=scar slightly visible • 3=scar non-visible.
The presence of a tissue mass (collagen+elastin) under the scar with the following scoring grid: • 0=no tissue mass present, • 1=small tissue mass present, • 2=moderate tissue mass present, • 3=large tissue mass present.
The level of vascularization of the scar with the following scoring grid: • 0=important vascularization of the scar, • 1=moderate vascularization of the scar, • 2=low vascularization of the scar, • 3=very little vascularization of the scar.
The sum of the scores of these 3 parameters gives the Global Internal Score of Wound Healing (GISWH). A macroscopic observation of all organs of the abdominal and thoracic cavities is performed on all mice. Any other organ with abnormal shape, size or colour is listed.
The body weight, mean body weight change (MBWC) of mice, the external scores of the length, width, swelling and visibility of skin wounds as well as the Global External Score of Wound Healing (GESWH), the time required for complete healing of skin wounds, and the internal scores of the visibility, the presence of a tissue mass and the vascularization of scars as well as the Global Interna Score of Wound Healing (GISWH) are analyzed at the end of the experimentation. […]

Cn1cc(-c2cccc(O)c2Oc2ccccc2)c2cc[nH]c2c1=O [BETi1]
Global external score per day (mean) (D 0): 15.00
Mean score swelling per day (D 0): 0.00
Mean score visibility (external) per day (D 0): 3.00
Global external score per day (mean) (D 1): 16.33
Mean score swelling per day (D 1): 1.33
Mean score visibility (external) per day (D 1): 3.00
Global external score per day (mean) (D 2): 17.67
Mean score swelling per day (D 2): 2.00
Mean score visibility (external) per day (D 2): 3.00
Global external score per day (mean) (D 3): 18.17
Mean score swelling per day (D 3): 2.00
Mean score visibility (external) per day (D 3): 3.00
Global external score per day (mean) (D 4): 17.50
Mean score swelling per day (D 4): 2.17
Mean score visibility (external) per day (D 4): 3.00
Global external score per day (mean) (D 5): 15.00
Mean score swelling per day (D 5): 2.17
Mean score visibility (external) per day (D 5): 3.00
Global external score per day (mean) (D 6): 14.17
Mean score swelling per day (D 6): 2.17
Mean score visibility (external) per day (D 6): 3.00
Global external score per day (mean) (D 7): 13.67
Mean score swelling per day (D 7): 2.50
Mean score visibility (external) per day (D 7): 3.00
Global external score per day (mean) (D 8): 13.50
Mean score swelling per day (D 8): 2.33
Mean score visibility (external) per day (D 8): 2.83
Global external score per day (mean) (D 9): 13.33
Mean score swelling per day (D 9): 2.17
Mean score visibility (external) per day (D 9): 2.83
Global external score per day (mean) (D 10): 12.00
Mean score swelling per day (D 10): 2.17
Mean score visibility (external) per day (D 10): 2.83
Global external score per day (mean) (D 11): 10.33
Mean score swelling per day (D 11): 1.83
Mean score visibility (external) per day (D 11): 2.67
Global external score per day (mean) (D 12): 8.00
Mean score swelling per day (D 12): 1.67
Mean score visibility (external) per day (D 12): 2.17
Global external score per day (mean) (D 13): 5.17
Mean score swelling per day (D 13): 1.67
Mean score visibility (external) per day (D 13): 1.17
Global external score per day (mean) (D 14): 4.50
Mean score swelling per day (D 14): 1.67
Mean score visibility (external) per day (D 14): 0.83
Global external score per day (mean) (D 15): 3.00
Mean score swelling per day (D 15): 1.50
Mean score visibility (external) per day (D 15): 0.50
Global external score per day (mean) (D 16): 2.17
Mean score swelling per day (D 16): 1.17
Mean score visibility (external) per day (D 16): 0.33
Global external score per day (mean) (D 17): 0.50
Mean score swelling per day (D 17): 0.50
Mean score visibility (external) per day (D 17): 0.00
Mean internal scores, Global internal score (after complete healing): 2.00
Mean internal scores, Score presence tissue mass (after complete healing): 0.50
Mean internal scores, Score vascularization (after complete healing): 1.33
Mean internal scores, Score visibility scar (after complete healing): 0.17
global external lesion severity score (compared to hydroalcoholic gel, beginning at treatment day 5): statistically significant decrease (improvement) in global external lesion severity score
complete healing earlier compared to hydroalcoholic gel (incisional lesions): approximately 5 days
mean time to heal (incisional lesions): 15.5 days
Mean time for complete wound healing, Day for complete healing (incisional wounds, once daily topical): 15.50 days
swelling at wound edges (significantly different on Days 15, 16 and 17 compared to vehicle and hydroalcoholic gel): rapidly reduced the swelling at wound edges
Mean score length (mm) per day (D 0): 10.00 mm
Mean score width (mm) per day (D 0): 2.00 mm
Mean score length (mm) per day (D 1): 10.00 mm
Mean score width (mm) per day (D 1): 2.00 mm
Mean score length (mm) per day (D 2): 10.00 mm
Mean score width (mm) per day (D 2): 2.67 mm
Mean score length (mm) per day (D 3): 10.00 mm
Mean score width (mm) per day (D 3): 2.83 mm
Mean score length (mm) per day (D 4): 9.33 mm
Mean score width (mm) per day (D 4): 3.00 mm
Mean score length (mm) per day (D 5): 7.50 mm
Mean score width (mm) per day (D 5): 2.33 mm
Mean score length (mm) per day (D 6): 6.50 mm
Mean score width (mm) per day (D 6): 2.50 mm
Mean score length (mm) per day (D 7): 5.67 mm
Mean score width (mm) per day (D 7): 2.50 mm
Mean score length (mm) per day (D 8): 5.67 mm
Mean score width (mm) per day (D 8): 2.67 mm
Mean score length (mm) per day (D 9): 5.50 mm
Mean score width (mm) per day (D 9): 2.83 mm
Mean score length (mm) per day (D 10): 4.83 mm
Mean score width (mm) per day (D 10): 2.17 mm
Mean score length (mm) per day (D 11): 3.83 mm
Mean score width (mm) per day (D 11): 2.00 mm
Mean score length (mm) per day (D 12): 2.67 mm
Mean score width (mm) per day (D 12): 1.50 mm
Mean score length (mm) per day (D 13): 1.50 mm
Mean score width (mm) per day (D 13): 0.83 mm
Mean score length (mm) per day (D 14): 1.17 mm
Mean score width (mm) per day (D 14): 0.83 mm
Mean score length (mm) per day (D 15): 0.50 mm
Mean score width (mm) per day (D 15): 0.50 mm
Mean score length (mm) per day (D 16): 0.33 mm
Mean score width (mm) per day (D 16): 0.33 mm
Mean score length (mm) per day (D 17): 0.00 mm
Mean score width (mm) per day (D 17): 0.00 mm
tolerability within the lesion sites and in general (throughout the treatment period): appeared to be well-tolerated
Mean body weight (gram) per day (wound model, D 0): 26.61 gram
Body weight, individual mouse (wound model, D 0, listed as BETi11.0%): 25.00 and 28.64 and 26.19
Mean body weight (gram) per day (wound model, D 2): 25.53 gram
Mean body weight (gram) per day (wound model, D 4): 25.70 gram
Mean body weight (gram) per day (wound model, D 7): 26.10 gram
Mean body weight (gram) per day (wound model, D 9): 26.85 gram
Mean body weight (gram) per day (wound model, D 11): 27.01 gram
Mean body weight (gram) per day (wound model, D 13): 26.88 gram
Mean body weight (gram) per day (wound model, D 16): 27.33 gram
Body weight, individual mouse (wound model, D 16, listed as BETi11.0%): 25.10 and 28.47 and 28.43
MBWC D 16 − D 0, individual mouse (wound model, listed as BETi11.0%): 0.10 and −0.17 and 2.24
